Patent US20220348565A1, “PHARMACEUTICAL COMPOUNDS” (SENTINEL ONCOLOGY LIMITED, priority 2019, published 2022)
Where a name gives a salt, the structure may show the parent alone. Read-outs that look alike come from different tables or passages of the source. Values belong to the molecule of their own block, whether it stands above or below them.

Experiments:
U87MG cells [1] = assay: U87MG human glioblastoma cell viability, SRB assay, 72 hours; assay type: cell-based
Procedure: The following protocol was used to measure the effects of compounds of the invention on U87MG cell viability.
U87MG cells were grown in their recommended growth media/supplements (ATCC). Cells were seeded at a concentration of 5000 cells per well into 96 well plates overnight at 37° C., 5% CO2. Cells were treated with relevant concentrations of test compound for 72 hours. After 72 hours incubation, viability was established using sulforhodamine B (SRB) colorimetric assay. Percentage viability was calculated against the mean of the DMSO treated control samples, and IC50 values for inhibition of cell growth were calculated using GraphPad Prism software by nonlinear regression (4 parameter logistic equation).

[2] = system: panel of 48 cancer-derived cell lines; assay: Proliferation assay on diverse cancer cell line panel, CellTiter-Glo, 72 hours; assay type: cell-based; details: 72 hours
Procedure: Screening against diverse cancer cell lines was performed to identify tumour types displaying sensitivity to atropisomers A-1 and A-2. A panel of 48 cancer-derived cell lines was screened in a high-throughput proliferation assay using dilutions of atropisomers A-1/A-2. Cell lines that were screened included those representing cancer of the pancreas, large intestine/colorectum, lung, brain and nerves, and lymphoma and leukaemia cell lines. Cell lines were treated with serial half-log dilutions of compound and assayed 72 hours later for proliferation using CellTiter-Glo Assay (Promega). IC50 values were calculated by fitting the dose-response data using a nonlinear regression model.

U87MG cells [3] = assay: Mitotic phenotype study in U87MG cells; assay type: cell-based, human; details: 0.03 μM, listed as A-1
Procedure: Distinct mitotic phenotypes are induced following inhibition of PLK1 and PLK4 in cells. […] Centriole assembly is controlled by PLK4, with inhibitors inducing a multipolar spindle phenotype due to centrosome defects which results in abnormal cyokinesis (Wong et al., 2015. Science 348(6239); 1155-1160). Cells were plated at 10 000/well in 96-well plates and incubated overnight. The following day atropisomer A-2 stocks in DMSO were diluted in medium then added to cells with a maximum final DMSO concentration on cells of 0.2%. Cells were incubated with the compound for 24 hours then fixed in 3.7% formaldehyde. Cells were permeabilised with 0.1% Triton X-100 then incubated with anti-phospho-histone H3 (Ser10) antibody (Abcam). The cells were washed with PBS then incubated with AlexaFluor 488 labelled goat anti-rabbit IgG (Invitrogen) in the presence of 4 ug/mL Hoechst 33342 (Invitrogen). Cells were washed in PBS then imaged on an Arrayscan VTi HCS instrument using the Target Activation V4 Bioapplication. A user-defined threshold was applied to identify mitotic cells based on the intensity of phospho-histone H3 staining. In a separate study, following the above protocol and using single compound concentrations of 0.03 μM for each of atropisomer A-1 and atropisomer A-2, the frequency of observed mitotic phenotypes in U87MG cells was manually assessed and classified into the following phenotypes: non-congressed chromosomes, multipolar spindles/abnormal cytokinesis, monopolar spindles, normal prometaphase, normal metaphase for each of A-1 and A-2.

[4] = Chiral stability (interconversion) of isolated atropisomers on heating, chiral HPLC; assay type: physicochemical; details: for % ee of sample @ 40° C. / % ee sample @ 80° C.: EtOH solution, listed as A-1
Procedure: Stability studies were carried out on the isolated atropisomers, atropisomers A-1 and A-2. To assess the interconversion of atropisomer A-1 and atropisomer A-2 chiral stability was monitored at 40° C. and 80° C. […] 1. 2×1 mg of pure atropisomer was dissolved in 1 mL of EtOH in a sealed-dram vial. 2. One set of vials was heated at 40° C. and another set at 80° C. 3. […] 4. Analysis was carried out at the following timepoints: 0 h, 24 h, 48 h, 72 h, 96 h and 240 h for the samples kept at 40° C. and 24 h, 96 h and 240 h for the samples kept at 80° C. using Chiral HPLC method 5

[5] = system: wild-type KRAS HeLa cells; assay: HeLa cell viability, wild-type KRAS transgene, Cell Titre Blue; assay type: cell-based; details: 72 hours, listed as A-4, read-out: WT GI50
Procedure: (§1) Atropisomers A-1, A-2, A-3 and A-4 were tested on HeLa cells engineered to inducibly express wild-type or oncogenic KRasG12V transgenes using the FLP-in/T-Rex system (Invitrogen). Cells were plated, and then treated with or without Doxycycline to induce transgene expression, and then treated with serially-diluted PBD inhibitors. After 72 hours of incubation, cell viability was assessed using the Cell Titre Blue reagent (Promega) and a BMG Pherastar plate reader. The effect of PBD inhibition on cell viability with either wild-type or oncogenic G12V KRAS was assessed using GraphPad Prism.
(§2) From the results obtained by following the above protocol, the GI50 values against the wild-type and KRAS G12V HeLa cell line of each of the atropisomers were determined as shown in Table 12.

KRAS G12V HeLa cell line = assay: HeLa cell viability, oncogenic KRasG12V transgene, Cell Titre Blue; assay type: cell-based; details: KRAS G12V HeLa cells, 72 hours; listed as A-4
Procedure: as §1, §2

[6] = Gravimetric solubility in water; assay type: physicochemical
Procedure: The solubility in water of the salts was measured using a gravimetric solubility protocol.
(§3) 1 ml of water was charged into crystallisation tubes. The solid was weighed into a tared glass vial, added in portions to the solutions and the vial weighed after each addition until a hazy solution was observed. The amount in mg was then calculated to give the solubility in mg/ml.
as §3, with “The solubility in water of the salts was measured using a gravimetric solubility protocol. Thus, 1” for “1”, “mg/mL.” for “mg/ml.”

[7] = Gravimetric vapour sorption (GVS); assay type: physicochemical
Procedure: Sorption isotherms were obtained using a Hiden Isochema moisture sorption analyser (model IGAsorp), controlled by IGAsorp Systems Software V6.50.48. The sample was maintained at a constant temperature (25° C.) by the instrument controls. The humidity was controlled by mixing streams of dry and wet nitrogen, with a total flow of 250 ml·min-1. The instrument was verified for relative humidity content by measuring three calibrated Rotronic salt solutions (10-50-88%). The weight change of the sample was monitored as a function of humidity by a microbalance (accuracy +/−0.005 mg). A defined amount of sample was placed in a tared mesh stainless steel basket under ambient conditions. A full experimental cycle typically consisted of three scans (sorption, desorption and sorption) at a constant temperature (25° C.) and 10% RH intervals over a 0-90% range (60 minutes for each humidity level).

IC50 (U87MG cells [1]): 4.6 µM | IC50 ([2]; A549, Lung): 9.19 µM | IC50 ([2]; A-172, Brain & Nerves): 7.07 µM | IC50 ([2]; AsPC-1, Pancreas): > 10 µM | IC50 ([2]; BxPC-3, Pancreas): 6.97 µM | IC50 ([2]; COLO 205, Large intestine/Colorectum): 6.75 µM | IC50 ([2]; Capan-1, Pancreas): > 10 µM | IC50 ([2]; D283 Med, Brain & Nerves): 9.26 µM | IC50 ([2]; DOHH-2, Blood/Lymphoma): 5.64 µM | IC50 ([2]; Daoy, Brain & Nerves): 7 µM | IC50 ([2]; Daudi, Blood/Lymphoma): 7.17 µM | IC50 ([2]; GRANTA-519, Blood/Lymphoma): 7.42 µM | IC50 ([2]; HBL-1, Blood/Lymphoma): 9.94 µM | IC50 ([2]; HCC44, Lung): 8.26 µM | IC50 ([2]; HOT 116, Large intestine/Colorectum, listed as A-1): 7.36 µM | IC50 ([2]; HT-29, Large intestine/Colorectum): 4.53 µM | IC50 ([2]; JVM-2, Blood/Lymphoma): 4.71 µM | IC50 ([2]; JeKo-1, Blood/Lymphoma): 7.94 µM | IC50 ([2]; KG-1, Blood/Leukaemia): > 10 µM | IC50 ([2]; Kasumi-1, Blood/Leukaemia): 5.13 µM | IC50 ([2]; LN-229, Brain & Nerves): 7.37 µM | IC50 ([2]; LoVo, Large intestine/Colorectum): 8.36 µM | IC50 ([2]; MIA PaCa-2, Pancreas): 9.17 µM | IC50 ([2]; ML-2, Blood/Leukaemia, listed as A-1): 4.01 µM | IC50 ([2]; MV-4-11, Blood/Leukaemia): 6.49 µM | IC50 ([2]; NAMALWA, Blood/Lymphoma): 7.05 µM | IC50 ([2]; NCI-H460, Lung): 8.13 µM | IC50 ([2]; NCI-H1299, Lung): 8.25 µM | IC50 ([2]; NCI-H1373, Lung): > 10 µM | IC50 ([2]; NCI-H1792, Lung): 7.73 µM | IC50 ([2]; NCI-H1975, Lung): 5.14 µM | IC50 ([2]; OCI-LY-19, Blood/Lymphoma): 6.67 µM | IC50 ([2]; PANC-1, Pancreas): > 10 µM | IC50 ([2]; Panc 10.05, Pancreas): 9 µM | IC50 ([2]; RKO, Large intestine/Colorectum): 6.17 µM | IC50 ([2]; Raji, Blood/Lymphoma): 3.91 µM | IC50 ([2]; Ramos, Blood/Lymphoma): 3.99 µM | IC50 ([2]; SK-MES-1, Lung): 7.78 µM | IC50 ([2]; SU-DHL-2, Blood/Lymphoma): 7.01 µM | IC50 ([2]; SU-DHL-6, Blood/Lymphoma): 3.98 µM | IC50 ([2]; SVV620, Large intestine/Colorectum, listed as A-1): 8.35 µM | IC50 ([2]; SW480, Large intestine/Colorectum): 7.55 µM | IC50 ([2]; SW1088, Brain & Nerves): 8.49 µM | IC50 ([2]; T98G, Brain & Nerves): 5.26 µM | IC50 ([2]; Toledo, Blood/Lymphoma): > 10 µM | IC50 ([2]; U118 MG, Brain & Nerves): 7.6 µM | IC50 ([2]; U-2932, Blood/Lymphoma): 4.47 µM | IC50 ([2]; WSU-DLCL2, Blood/Lymphoma): 6.74 µM | IC50 ([2]; Z-138, Blood/Lymphoma): 7.04 µM | % ee of sample @ 40° C. ([4]; 0 h): 100 % ee | % ee of sample @ 40° C. ([4]; 24 h): 100 % ee | % ee of sample @ 40° C. ([4]; 48 h): 100 % ee | % ee of sample @ 40° C. ([4]; 72 h): 100 % ee | % ee of sample @ 40° C. ([4]; 96 h): 100 % ee | % ee of sample @ 40° C. ([4]; 10 days): 100 % ee | % ee sample @ 80° C. ([4]; 0 h): 100 % ee | % ee sample @ 80° C. ([4]; 24 h): 100 % ee | % ee sample @ 80° C. ([4]; 96 h): 100 % ee | % ee sample @ 80° C. ([4]; 10 days): 100 % ee | atropisomer classification (LaPlante) ([4]; from stability of isolated atropisomers): Class 3 | interconversion / racemization of atropisomers on heating ([4]; heating for 10 days at 40° C. and 80° C.): no interconversion was observed
SMILES: CN(C)CCNC(=O)c1ccc(-c2ccc(-c3ccc(Cl)cc3)n2-c2ccccc2C(F)(F)F)cc1 (single isomer, unassigned) [Atropisomer A-1, 4-[5-(4-chlorophenyl)-1-[2-(trifluoromethyl)phenyl]pyrrol-2-yl]-N-[2-(dimethylamino)ethyl]benzamide]
cells with abnormal cytokinesis (U87MG cells [3]): 24% | cells with non-congressed chromosomes (U87MG cells [3]): No evidence | cells with normal mitotic phenotype (U87MG cells [3]): 76%

IC50 (U87MG cells [1]; listed as A-4): 3.94 µM | GI50 [5]: 0.254 µM | GI50 (KRAS G12V HeLa cell line): 0.153 µM
SMILES: CN(C)CCNC(=O)c1ccc(-c2ccc(-c3ccc(Cl)cc3)n2-c2ccccc2C(F)(F)F)nc1 (single isomer, unassigned) [Atropisomer A-4, 6-[5-(4-chlorophenyl)-1-[2-(trifluoromethyl)phenyl]pyrrol-2-yl]-N-[2-(dimethylamino)ethyl]pyridine-3-carboxamide]

surface moisture uptake ([7]; at 90% RH): < 1%
SMILES: CN(C)CCNC(=O)c1ccc(-c2ccc(-c3ccc(Cl)cc3)n2-c2ccccc2C(F)(F)F)cc1 [(+)-L-tartaric acid salt, (R)-2,4-[5-(4-chlorophenyl)-1-[2-(trifluoromethyl)-phenyl]pyrrol-2-yl]-N-[2-(dimethylamino)-ethyl]benzamide (+)-L-tartaric acid salt]
water solubility compared with free base [6]: improved water solubility over the free base

moisture content before the first desorption ([7]; GVS, 25° C.): ca. 0.3% | moisture taken up between 80 and 90% RH ([7]; GVS, 25° C., 80-90% RH): ca. 0.8%
SMILES: CN(C)CCNC(=O)c1ccc(-c2ccc(-c3ccc(Cl)cc3)n2-c2ccccc2C(F)(F)F)cc1.O=C(O)C(O)C(O)C(=O)O [Tartrate Pattern B, (R)-4-[5-(4-chlorophenyl)-1-[2-(trifluoromethyl)phenyl]pyrrol-2-yl]-N-[2 (dimethylamino)ethyl]benzamide tartrate]
solid form stability under GVS ([7]; 0-90% RH cycling, XRPD post GVS): stable solid, only absorbing surface moisture with no change in form
